What was measured:
[1] = test system: P. aeruginosa PAM1154 carrying wild-type KPC-2 (PAM4135); test: Checkerboard potentiation of antibiotic activity by BLIs; format: cell-based, Pseudomonas aeruginosa; conditions: PAM4135 KPC-2
[2] = test system: P. aeruginosa PAM1154 carrying pUCP24 vector (PAM4175); test: as above; format: cell-based, Pseudomonas aeruginosa
[3] = test system: P. aeruginosa PAM1154 carrying KPC-2::L169P (PAM4751); test: as above; format: cell-based, Pseudomonas aeruginosa; conditions: for Beta-lactam MIC in the presence of BLI: PAM4751 KPC-2 L169P
[4] = target: T1, KPC-2 D179Y (Klebsiella pneumoniae, UniProt Q9F663, D178Y); test: IC50 of inhibition of ceftazidime hydrolysis; format: biochemical
T1 construct: 6xHis (C); made in house; host or cells: E. coli BL21(DE3) pLys, pET28a
Experimental: (§1) Enzymes were mixed with BLIs at concentrations varying from 160 to 0.0027 μM in buffer A and incubated for 10 min, and 100 μM (for wild-type KPC-2) or 10 μM (for the D179Y mutant) CFTZ was subsequently added. Substrate cleavage profiles were recorded at 260 nm every 10 s for 10 min. Initial rates of reaction were calculated and exported to Prism software to calculate IC50s using the “dose-response – inhibition, variable slope (four parameters)” equation.

[5] = target: T2, KPC-2 (Klebsiella pneumoniae, UniProt Q9F663); test: IC50 of inhibition of ceftazidime hydrolysis; format: biochemical
T2 construct: 6xHis (C); made in house; host or cells: E. coli BL21(DE3) pLys, pET28a
Experimental: as §1

[6] = target: T2, KPC-2; conditions: NCF hydrolysis; cited from earlier work
[7] = target: T3, KPC-2 L169P (Klebsiella pneumoniae, UniProt Q9F663, L168P); test: Steady-state Ki with nitrocefin as substrate (method of Waley); format: biochemical; conditions: NCF substrate, 10 min preincubation, 37°C
T3 construct: 6xHis (C); made in house; host or cells: E. coli (pET28a construct; BL21(DE3) pLys is named only for wild type and D179Y)

In the case of `CO/N=C(\C(=O)N[C@@H]1C(=O)N2C(C(=O)[O-])=C(C[N+]3(C)CCCC3)CS[C@H]12)c1csc(N)n1` [Cefepime, cefepime], the “Beta-lactam MIC in the presence of BLI” value ([1]; avibactam 0 µg/ml) is reported as 64 µg/mL, the “Beta-lactam MIC in the presence of BLI” value ([1]; avibactam 0.008 µg/ml) is reported as 64 µg/mL and the “Beta-lactam MIC in the presence of BLI” value ([1]; avibactam 0.031 µg/ml) is reported as 64 µg/mL. For the same molecule, the “Beta-lactam MIC in the presence of BLI” value ([1]; avibactam 0.06 µg/ml) was 32 µg/mL, the “Beta-lactam MIC in the presence of BLI” value ([1]; avibactam 0.5 µg/ml) was 0.5 µg/mL and the “Antibiotic MIC, No BLI” value ([1]; no BLI) was 64 µg/mL. The “Beta-lactam MIC in the presence of BLI” value ([1]; vaborbactam 0 µg/ml) was 64 µg/mL, the “Beta-lactam MIC in the presence of BLI” value ([1]; vaborbactam 0.008 µg/ml) was 64 µg/mL and the “Beta-lactam MIC in the presence of BLI” value ([1]; vaborbactam 0.031 µg/ml) was 64 µg/mL. The “Beta-lactam MIC in the presence of BLI” value ([1]; vaborbactam 0.06 µg/ml) was 64 µg/mL, the “Beta-lactam MIC in the presence of BLI” value ([1]; vaborbactam 0.5 µg/ml) was 2 µg/mL and the “Antibiotic MIC with avibactam at 4 μg/ml” value ([2]; avibactam 4 μg/ml) was 0.125 µg/mL. For the same molecule, the “Antibiotic MIC, No BLI” value ([2]; no BLI) was 0.125 µg/mL, the “Antibiotic MIC with vaborbactam at 8 μg/ml” value ([2]; vaborbactam 8 μg/ml) was 0.125 µg/mL and the “Antibiotic MIC with avibactam at 4 μg/ml” value ([3]; PAM4751 KPC-2::L169P, avibactam 4 μg/ml) was 0.5 µg/mL. For the same molecule, the “Antibiotic MIC, No BLI” value ([3]; PAM4751 KPC-2::L169P, no BLI) was 32 µg/mL, the “Beta-lactam MIC in the presence of BLI” value ([3]; avibactam 0 µg/ml) was 32 µg/mL and the “Beta-lactam MIC in the presence of BLI” value ([3]; avibactam 0.008 µg/ml) was 32 µg/mL. The “Beta-lactam MIC in the presence of BLI” value ([3]; avibactam 0.031 µg/ml) was 32 µg/mL, the “Beta-lactam MIC in the presence of BLI” value ([3]; avibactam 0.06 µg/ml) was 32 µg/mL and the “Beta-lactam MIC in the presence of BLI” value ([3]; avibactam 0.5 µg/ml) was 4 µg/mL. The “Beta-lactam MIC in the presence of BLI” value ([3]; avibactam 1 µg/ml) was 2 µg/mL, the “Beta-lactam MIC in the presence of BLI” value ([3]; avibactam 2 µg/ml) was 1 µg/mL and the “Beta-lactam MIC in the presence of BLI” value ([3]; avibactam 4 µg/ml) was 0.5 µg/mL. For the same molecule, the “Beta-lactam MIC in the presence of BLI” value ([3]; vaborbactam 0 µg/ml) was 32 µg/mL, the “Beta-lactam MIC in the presence of BLI” value ([3]; vaborbactam 0.008 µg/ml) was 32 µg/mL and the “Beta-lactam MIC in the presence of BLI” value ([3]; vaborbactam 0.031 µg/ml) was 32 µg/mL. For the same molecule, the “Beta-lactam MIC in the presence of BLI” value ([3]; vaborbactam 0.06 µg/ml) was 32 µg/mL, the “Beta-lactam MIC in the presence of BLI” value ([3]; vaborbactam 0.5 µg/ml) was 4 µg/mL and the “Beta-lactam MIC in the presence of BLI” value ([3]; vaborbactam 1 µg/ml) was 0.5 µg/mL.
In the case of `O=C(O)C[C@@H]1CC[C@H](NC(=O)Cc2cccs2)B(O)O1` [Vaborbactam, vaborbactam], the IC50 [4] is given as 1900 ± 300 nM, the IC50 [5] is given as 940 ± 20 nM and the Kd [6] is given as 8 nM. The k2/K [6] was 5.5 ± 0.5 × 10^3 M^−1 s^−1, the “k−2” value [6] was 4.3 ± 0.6 × 10^−5 s^−1 and the Ki [7] was 190 ± 20 nM. For the same molecule, the PV50 ([1]; potentiation of cefepime) was 0.5 µg/mL, the PV50 ([1]; potentiation of ceftazidime) was 0.5 µg/mL and the PV50 ([1]; potentiation of piperacillin) was 1 µg/mL. For the same molecule, the “reduction of potency to enhance ceftazidime, cefepime or piperacillin vs wild-type KPC-2” value ([3]; L169P, depending on the antibiotic) was “no more than 2 fold”, the PV50 ([3]; PAM4751 KPC-2::L169P, potentiation of cefepime) was 1 µg/mL and the PV50 ([3]; PAM4751 KPC-2::L169P, potentiation of ceftazidime) was 1 µg/mL. The PV50 ([3]; PAM4751 KPC-2::L169P, potentiation of piperacillin) was 1 µg/mL.

Reference: article PMC7179312 (Antimicrobial Agents and Chemotherapy, 2020)
